Test results from US12414968B2, “Compositions comprising bacterially derived minicells and methods of using the same” (EnGeneIC Molecular Delivery Pty Ltd, priority 2018, dated 2025).

Assays:
[1] = tested on: Adreno-cortical cancer cell lines ACC01 and ACC07; assay: MTS cell proliferation assay, ACC01 and ACC07; conditions: 72 hrs, lines derived from Stage IV patients
Procedure: All cells were incubated for a further 72 hrs followed by the colorimetric MTS cell proliferation assay (Cory et al., Cancer Commun., 3(7): 207-12 (1991)) using the CellTiter 96 AQueous One Solution Cell Proliferation Assay (Promega Corp., Madison, Wis., USA), according to the manufacturer's instructions. The colorimetric measurements were read at 490 nm.

[2] = tested on: human breast cancer cell line MDA-MB-468; assay: MTS cell proliferation assay, MDA-MB-468; type: cell-based; conditions: 72 hrs
[3] = tested on: MiaPaca-2 cells; assay: MTS cell proliferation assay, MiaPaca-2; type: cell-based, human; conditions: 72 hrs
[4] = tested on: human colorectal cancer cell lines Caco-2 and HCT116; assay: MTS cell proliferation assay, Caco-2 and HCT116; type: cell-based; conditions: 72 hrs
[5] = tested on: Glioblastoma cell line U87-MG; assay: MTS cell proliferation assay, U87-MG; type: cell-based; conditions: 72 hrs
[6] = tested on: bone marrow derived dendritic cells (BMDC) with CT26Ep12.1 cells; assay: BMDC / treated CT26Ep12.1 co-culture; type: cell-based, mouse; conditions: 48 h co-incubation
Procedure: The effect of tumor cell death in response to Ep-EDV, Ep-EDV-682, and 682 treatment on dendritic cell maturation was also examined (FIGS. 27E-27I). Bone marrow derived dendritic cells (BMDC) were co-incubated with treated tumor cells (4T1 and CT26Ep12.1) for 48 h, followed by assessment of the production of the type 1 interferons IFNα and IFNβ. Increases in type 1 interferon production by dendritic cells is well established as a mechanism of dendritic cell maturation and enhanced antigen presentation as well as being vital for their interaction with other immune cell subsets including NK cells and T-cells (Fitzgerald-Bocarsly and Feng, 2007; Simmons et al., 2012).
Bone Marrow Derived DCs (BMDC): Bone marrow was isolated from the femurs and tibias of Balb/c mice. […]
Macrophage and DC/Tumor Cell Co-cultures: CT26Ep12.1 and 4T1 cells were harvested with Versene (Gibco) and cells were collected in 1 mL Eppendorf tubes. […] RAW264.7/tumor cell co-cultures were collected using a cell scraper and samples were stained with DAPI (Sigma), anti-CD45 Brilliant Violet 510 (BioLegend), anti-CD86 APC-Cy7, and anti-CD206 AF488 and assessed by flow cytometry. […] RNA concentration was determined on an Eppendorf biophotometer plus. […] Data was exported to excel and the relative quantitation was calculated from the ΔΔCt.

[7] = tested on: human STING alleles; conditions: Corrales et al., 2015, Fu et al.; cited from earlier work
[8] = tested on: human peripheral blood monocytes (PBMCs); conditions: multiple donors with different STING genotypes; cited from earlier work
[9] = tested on: MiaPaca-2 GemR cells; assay: MTS cell proliferation assay, MiaPaca-2 GemR; type: cell-based, human; conditions: 72 hrs
[10] = tested on: A549 (lung cancer) xenografts; assay: A549 xenograft, EDVsDox with IFN-γ (FIG. 20); type: in vivo, Balb/c nu/nu mice; conditions: i.v. tail vein; IFN-γ 0.5 × 10^4 IU per dose
Source text: (§1) Lung cancer: To study the anti-tumor effects of combining ^EGFREDVsDox and IFN-γ (type II IFN) in a lung cancer model, A549 (lung cancer) xenografts in Balb/c nu/nu mice were established and divided into four groups receiving different treatment combinations by intravenous tail vein injection. Group 1 received sterile physiological saline (FIG. 20, open diamonds). Group 2 received IFN-γ (0.5×10^4 IU) per dose (FIG. 20, solid triangles). Group 3 received ^EGFREDVsDox (FIG. 20, solid squares). Group 4 received ^EGFREDVsDox and IFN-γ (0.5×10^4 IU) per dose (FIG. 20, solid circles).

[11] = tested on: MDA-MB 468 xenografts; assay: MDA-MB 468 breast cancer xenograft, EDVsDox with IFN-γ (FIGS. 21, 22); type: in vivo, Balb/c nu/nu mice; conditions: IFN-γ 0.5 × 10^4 IU per dose
Source text: as §1, with “Breast” for “Lung”, “IFN-γ” for “IFN-γ (type II IFN)”, “breast” for “lung”, “MDA-MB 468” for “A549 (lung cancer)”, “21,” for “20,”

Molecule: COC(=O)c1cc2c([nH]1)C(=O)C=C1N(C(=O)c3cc4cc(OC)c(OC)c(OC)c4[nH]3)C[C@H]3C[C@]123 [duocarmycin]
- cytotoxic effect / resistance of the cell lines [1]: potent cytotoxic effects

Molecule: CC(=O)O[C@H]1C(=O)[C@@]2(C)[C@H]([C@H](OC(=O)c3ccccc3)[C@]3(O)C[C@H](OC(=O)[C@H](O)[C@@H](NC(=O)c4ccccc4)c4ccccc4)C(C)=C1C3(C)C)[C@]1(OC(C)=O)CO[C@@H]1C[C@@H]2O [paclitaxel]
- inhibition of proliferation / resistance of the cell line [2]: resistant
- cytotoxic effect / resistance of the cell lines [1]: highly resistant

Molecule: O=C1c2c(O)ccc(O)c2C(=O)c2c(NCCNCCO)ccc(NCCNCCO)c21 [mitoxantrone]
- cytotoxic effect / resistance of the cell lines [1]: highly resistant

Molecule: CN(Cc1cnc2nc(N)nc(N)c2n1)c1ccc(C(=O)N[C@@H](CCC(=O)O)C(=O)O)cc1 [mathotrxate]
- inhibition of proliferation / resistance of the cells [3]: resistant

Molecule: O=C1[O][Pt]2([NH][C@@H]3CCCC[C@H]3[NH]2)[O]C1=O [oxaliplatin]
- inhibition of proliferation / resistance of the cells [3]: resistant

Molecule: COc1cccc2c1C(=O)c1c(O)c3c(c(O)c1C2=O)C[C@@](O)(C(=O)CO)C[C@@H]3O[C@H]1C[C@H](N)[C@H](O)[C@H](C)O1 [doxorubicin]
- inhibition of proliferation / resistance of the cell line [2]: resistant
- inhibition of proliferation / resistance of the cell lines [4]: resistant
- inhibition of proliferation / resistance of the cell line [5]: resistant
- inhibition of proliferation / resistance of the cells [3]: resistant
- increase in IFNβ mRNA production [6]: ~5 fold
- cytotoxic effect / resistance of the cell lines [1]: highly resistant

Molecule: CCc1c2c(nc3ccc(OC(=O)N4CCC(N5CCCCC5)CC4)cc13)-c1cc3c(c(=O)n1C2)COC(=O)[C@]3(O)CC [irinotecan]
- inhibition of proliferation / resistance of the cells [3]: resistant

Molecule: Clc1ccc(C(c2ccccc2Cl)C(Cl)Cl)cc1 (stereo not drawn) [mitotane]
- cytotoxic effect / resistance of the cell lines [1]: highly resistant

Molecule: O=c1[nH]cc(F)c(=O)[nH]1 [5-Fluoro Uracil (5-FU), 5-Fluoro Uracil]
- inhibition of proliferation / resistance of the cells [3]: resistant

Molecule: CC(=O)O[C@@]12CO[C@@H]1C[C@H](O)[C@@]1(C)C(=O)[C@H](O)C3=C(C)[C@@H](OC(=O)[C@H](O)[C@@H](NC(=O)OC(C)(C)C)c4ccccc4)C[C@@](O)([C@@H](OC(=O)c4ccccc4)[C@H]21)C3(C)C [docetaxel]
- inhibition of proliferation / resistance of the cell line [2]: resistant

Molecule: CC(=O)O[C@H]1C(=O)[C@@]2(C)[C@H]([C@H](OC(=O)c3ccccc3)[C@]3(O)C[C@H](OC(=O)[C@H](O)[C@@H](NC(=O)c4ccccc4)c4ccccc4)C(C)=C1C3(C)C)[C@]1(OC(C)=O)CO[C@@H]1C[C@@H]2O [paclitaxel IVAX, paclitaxel]
- inhibition of proliferation / resistance of the cell line [5]: resistant

Molecule: Nc1ncnc2c1ncn2[C@@H]1O[C@@H]2COP(O)(=S)O[C@@H]3C(O)[C@@H](COP(O)(=S)O[C@H]2[C@H]1O)O[C@H]3n1cnc2c(N)ncnc21 (stereo partly drawn) [ML RR-S2 CDA]
- activation of human STING alleles [7]: broadly activate all known human STING alleles
- expression of IFN-β [8]: dose-dependent expression of IFN-β

Molecule: Nc1ccn([C@@H]2O[C@H](CO)[C@@H](O)C2(F)F)c(=O)n1 [gemzar]
- inhibition of proliferation / resistance of the cells [3]: resistant
- inhibition of proliferation / resistance of the cells [9]: resistant

B1: IFN-γ: type II interferon, given free at 0.5 or 0.75 × 10^4 IU per dose (protein, UniProt P01580 23-155, looked up)
Interferon gamma: HGTVIESLESLNNYFNSSGIDVEEKSLFLDIWRNWQKDGDMKILQSQIISFYLRLFEVLKDNQAISNNISVIESHLITTFFSNSKAKKDAFMSIAKFEVNNPQVQRQAFNELIRVVHQLLPESSLRKRKRSRC
- Results: anti-tumor efficacy [10]: no anti-tumor efficacy
- Results: anti-tumor efficacy, Exp. #2 (FIG. 22) ([11]; listed as IFN-): no anti-tumor efficacy
- Results: anti-tumor efficacy, Exp. #1 (FIG. 21) ([11]; i.v. tail vein): no anti-tumor efficacy
